Laboratory results published in ChEMBL document CHEMBL1124819, “1,9-Alkano-bridged 2,3,4,5-tetrahydro-1H-3-benzazepines with affinity for the alpha 2-adrenoceptor and the 5-HT1A receptor” (J Med Chem, 1990).

Key:
[1] = biological target: T1, 5-hydroxytryptamine receptor 1A (Rattus norvegicus, UniProt P19327); assay: Binding affinity against 5-hydroxytryptamine 1A receptor in rat cerebral cortical membrane using [3H]-8-OH-DPAT as radioligand.; assay type: cell membranes
T1 sequence (P19327 whole entry): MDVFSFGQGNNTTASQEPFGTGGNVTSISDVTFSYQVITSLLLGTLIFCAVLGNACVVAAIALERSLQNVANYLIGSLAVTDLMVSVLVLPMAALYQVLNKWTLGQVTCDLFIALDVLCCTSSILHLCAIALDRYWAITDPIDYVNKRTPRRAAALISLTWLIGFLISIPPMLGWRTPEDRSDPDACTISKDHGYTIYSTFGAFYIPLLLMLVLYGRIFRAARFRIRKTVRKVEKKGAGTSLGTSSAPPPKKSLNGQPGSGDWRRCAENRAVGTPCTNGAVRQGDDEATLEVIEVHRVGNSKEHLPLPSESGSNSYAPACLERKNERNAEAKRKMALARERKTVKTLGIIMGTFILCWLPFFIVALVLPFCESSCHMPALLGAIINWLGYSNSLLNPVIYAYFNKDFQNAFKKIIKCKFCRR

[2] = biological target: T2, Adrenergic receptor alpha-2 (Rattus norvegicus, UniProt P22086+P19328+P22909); assay: Binding affinity against alpha-2 adrenergic receptor in rat cerebral cortical membrane using [3H]yohimbine as radioligand.; assay type: cell membranes
T2 sequence (P22086 whole entry): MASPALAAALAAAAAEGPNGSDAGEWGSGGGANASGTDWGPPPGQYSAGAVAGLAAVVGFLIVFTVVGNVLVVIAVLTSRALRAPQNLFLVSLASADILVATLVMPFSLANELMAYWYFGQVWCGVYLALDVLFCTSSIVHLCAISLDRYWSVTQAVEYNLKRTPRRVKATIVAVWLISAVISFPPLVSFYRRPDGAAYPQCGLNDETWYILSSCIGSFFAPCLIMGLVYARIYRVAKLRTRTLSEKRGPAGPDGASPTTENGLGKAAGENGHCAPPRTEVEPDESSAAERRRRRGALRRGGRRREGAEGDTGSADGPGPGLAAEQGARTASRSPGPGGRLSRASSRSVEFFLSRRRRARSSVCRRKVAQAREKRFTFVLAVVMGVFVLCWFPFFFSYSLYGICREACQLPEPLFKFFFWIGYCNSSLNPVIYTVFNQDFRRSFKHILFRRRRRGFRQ
T2 sequence (P19328 whole entry): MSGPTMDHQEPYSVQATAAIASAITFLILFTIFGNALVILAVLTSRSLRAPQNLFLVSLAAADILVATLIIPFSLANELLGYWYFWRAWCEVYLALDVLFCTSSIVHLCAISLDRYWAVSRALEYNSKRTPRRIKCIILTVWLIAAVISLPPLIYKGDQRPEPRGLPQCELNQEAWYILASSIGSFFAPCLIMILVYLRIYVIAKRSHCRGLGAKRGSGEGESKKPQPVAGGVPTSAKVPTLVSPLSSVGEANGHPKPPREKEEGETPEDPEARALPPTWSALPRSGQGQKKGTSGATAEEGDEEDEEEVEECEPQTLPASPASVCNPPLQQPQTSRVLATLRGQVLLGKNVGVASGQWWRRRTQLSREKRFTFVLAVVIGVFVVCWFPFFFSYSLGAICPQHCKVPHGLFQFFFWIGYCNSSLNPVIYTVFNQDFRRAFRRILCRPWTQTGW
T2 sequence (P22909 whole entry): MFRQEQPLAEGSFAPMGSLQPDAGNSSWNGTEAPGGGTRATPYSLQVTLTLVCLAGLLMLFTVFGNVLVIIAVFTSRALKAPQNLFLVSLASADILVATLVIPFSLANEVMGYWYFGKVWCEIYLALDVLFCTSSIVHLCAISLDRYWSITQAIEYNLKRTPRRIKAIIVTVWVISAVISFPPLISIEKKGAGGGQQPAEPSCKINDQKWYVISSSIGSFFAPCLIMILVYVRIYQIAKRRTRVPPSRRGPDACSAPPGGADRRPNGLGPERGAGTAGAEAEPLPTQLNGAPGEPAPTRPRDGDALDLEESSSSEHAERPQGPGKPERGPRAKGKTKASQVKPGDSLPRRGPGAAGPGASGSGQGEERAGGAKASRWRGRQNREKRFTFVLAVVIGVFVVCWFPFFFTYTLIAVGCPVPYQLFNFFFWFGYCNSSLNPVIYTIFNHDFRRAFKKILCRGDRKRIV

Row | Structure (SMILES) | Ki [1] | Log Ki [2]
1 | Br.CN1CCc2cccc3c2C(CC3)C1 (stereo not given) | 15.8 nM | -6.6
2 | Br.CN1CCc2c(Cl)ccc3c2C(CC3)C1 (stereo not given) | 25.1 nM | -8.1
3 | Br.COc1ccc2c3c1CCN(C)CC3CC2 (stereo not given) | 100 nM | -6.9
4 | Br.CN1CCc2c(Cl)ccc3[nH]cc(c23)C1 | 31.6 nM | -6.8
5 | Br.CN1CCc2ccc(Cl)c3c2C(CCCC3)C1 (stereo not given) | 5010 nM | -6.2
6 | Cl.O=C1CC2(CCCC2)CC(=O)N1CCCCN1CCc2cccc3c2C(CCC3)C1 (stereo not given) | 39.8 nM | -5.9
7 | Cl.c1ccc(CCN2CCc3cccc4c3C(CCC4)C2)cc1 (stereo not given) | 794 nM | -6.2
8 | C=CCN1CCc2c(OC)ccc3c2C(CCC3)C1.Cl (stereo not given) | 12.6 nM | -6
9 | CCCN1CCc2cccc3c2C(CCC3)C1.Cl (stereo not given) | 50.1 nM | -6
10 | CCN1CCc2cccc3c2C(CCC3)C1.Cl (stereo not given) | 50.1 nM | -6.2
11 | C=CCOc1ccc2c3c1CCN(C)CC3CCC2.Cl (stereo not given) | 631 nM | -7.5
12 | CN1CCc2c(O)ccc3c2C(CCC3)C1.Cl (stereo not given) | 316 nM | -6.2
13 | COc1ccc2c3c1CCN(C)CC3CCC2.Cl (stereo not given) | 25.1 nM | -6.8
14 | COc1ccc2c3c1CN(C)CC3CCC2.Cl (stereo not given) | 200 nM | -6.8
15 | COc1ccc2c3c1CN(C)CCC3CCC2.Cl (stereo not given) | 6310 nM | -5.9
16 | CN1CCc2c[nH]c3cccc(c23)C1.Cl | 1260 nM | -6
17 | COc1ccc2c3c1CCN(C)C3CCC2 (stereo not given) | 3160 nM | –
18 | CN1CCc2cccc3c2C(CCC3)C1.Cl (stereo not given) | 50.1 nM | -5.9
19 | CN1CCc2cccc3c2[C@H](CCC3)C1.Cl | 31.6 nM | -5.6
20 | O=C1CC2(CCCC2)CC(=O)N1CCCCN1CCc2ccccc2CC1 | 25.1 nM | –

Row | Structure (SMILES) | Ki [1] | Log Ki [2]
21 | CN1CCc2cccc3c2C(CCCC3)C1.Cl (stereo not given) | 398 nM | -5.9
22 | C=CCN1CCc2cccc3c2C(CCC3)C1.Cl (stereo not given) | 20 nM | -6.1
23 | CN1CCc2cccc3c2[C@@H](CCC3)C1.Cl | 63.1 nM | -6.4
24 | Cl.c1cc2c3c(c1)CCNCC3CCC2 (stereo not given) | 200 nM | -5.9
25 | CN1CCc2cccc(Cl)c2CC1 | 100 nM | -8.1
26 | Br.CN1CCc2cccc3[nH]cc(c23)C1 | 100 nM | -6.3
27 | O=C1CC2(CCCC2)CC(=O)N1CCCCN1CCc2cccc(Cl)c2CC1 | 5.01 nM | –
28 | CN1CCc2ccc(Cl)c3c2C(CC3)C1 (stereo not given) | 25.1 nM | -6.8
29 | C=CCN1CCc2c(Cl)ccc3c2C(CCC3)C1 (stereo not given) | 7.94 nM | -6.1
30 | CN1CCc2c(Cl)ccc3c2C(CCCC3)C1 (stereo not given) | 79.4 nM | -6.5
31 | CN1CCc2ccc(Cl)c3c2[C@@H](CCC3)C1 | 126 nM | -6.4
32 | CN1CCc2c(Cl)ccc3c2[C@@H](CCC3)C1 | 20 nM | -7
33 | O=C1CC2(CCCC2)CC(=O)N1CCCCN1CCc2c(Cl)ccc3c2C(CCC3)C1 (stereo not given) | 7.94 nM | -5.5
34 | CN1CCc2c(Cl)ccc3c2C(CCC3)C1 (stereo not given) | 10 nM | -6.9
35 | CN1CCc2c(Cl)ccc3c2[C@H](CCC3)C1 | 6.31 nM | -6.6
36 | CCN1CCc2c(Cl)ccc3c2C(CCC3)C1 (stereo not given) | 15.8 nM | -6.5
37 | CN1CCc2ccc(Cl)c3c2[C@H](CCC3)C1 | 50.1 nM | -5.8
38 | CCCN1CCc2c(Cl)ccc3c2C(CCC3)C1 (stereo not given) | 31.6 nM | -6.4
39 | CN1CCc2ccc(Cl)c3c2C(CCC3)C1 (stereo not given) | 79.4 nM | -6
